Test results reported in patent US20210300932A1, “CYCLIC PEPTIDES TARGETING ALPHA-4-BETA-7 INTEGRIN” (Zealand Pharma A/S, priority 2015, published 2021).

Legend:
[1] = target: T1, Recombinant human integrin α4β7 (Homo sapiens, UniProt P13612+P26010, DEL724-798); assay: Integrin α4β7—MAdCAM-1 ELISA competition assay; assay type: binding; details: ratio a4b1 ELISA IC50 / a4b7 ELISA IC50
T1 construct: purchased R&D Systems 5397-A3-050
T1 sequence (P13612 34-977 limits assumed): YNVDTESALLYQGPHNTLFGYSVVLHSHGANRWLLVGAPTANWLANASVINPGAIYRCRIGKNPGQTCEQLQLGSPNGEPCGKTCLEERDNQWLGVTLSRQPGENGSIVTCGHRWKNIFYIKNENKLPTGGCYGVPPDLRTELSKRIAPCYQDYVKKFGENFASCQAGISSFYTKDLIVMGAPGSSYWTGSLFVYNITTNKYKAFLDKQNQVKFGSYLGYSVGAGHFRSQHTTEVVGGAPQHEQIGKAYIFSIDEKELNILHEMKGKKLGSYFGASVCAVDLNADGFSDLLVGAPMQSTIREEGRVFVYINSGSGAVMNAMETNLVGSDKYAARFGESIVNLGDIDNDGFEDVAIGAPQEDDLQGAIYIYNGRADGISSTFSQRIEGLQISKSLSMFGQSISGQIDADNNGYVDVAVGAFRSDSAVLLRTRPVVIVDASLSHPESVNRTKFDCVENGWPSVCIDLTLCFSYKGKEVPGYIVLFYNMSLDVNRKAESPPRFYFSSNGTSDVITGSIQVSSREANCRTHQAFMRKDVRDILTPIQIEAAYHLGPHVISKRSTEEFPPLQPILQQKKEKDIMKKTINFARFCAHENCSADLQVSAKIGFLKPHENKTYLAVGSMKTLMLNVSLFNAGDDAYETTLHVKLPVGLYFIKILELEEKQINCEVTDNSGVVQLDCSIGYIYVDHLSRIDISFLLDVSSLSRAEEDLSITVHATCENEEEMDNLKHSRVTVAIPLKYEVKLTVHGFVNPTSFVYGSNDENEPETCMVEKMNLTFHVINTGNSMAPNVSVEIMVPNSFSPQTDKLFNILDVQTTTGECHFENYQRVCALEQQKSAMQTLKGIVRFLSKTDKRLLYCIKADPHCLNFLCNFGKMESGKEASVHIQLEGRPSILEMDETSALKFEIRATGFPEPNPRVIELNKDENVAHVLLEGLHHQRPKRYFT
T1 sequence (P26010 20-723 limits assumed): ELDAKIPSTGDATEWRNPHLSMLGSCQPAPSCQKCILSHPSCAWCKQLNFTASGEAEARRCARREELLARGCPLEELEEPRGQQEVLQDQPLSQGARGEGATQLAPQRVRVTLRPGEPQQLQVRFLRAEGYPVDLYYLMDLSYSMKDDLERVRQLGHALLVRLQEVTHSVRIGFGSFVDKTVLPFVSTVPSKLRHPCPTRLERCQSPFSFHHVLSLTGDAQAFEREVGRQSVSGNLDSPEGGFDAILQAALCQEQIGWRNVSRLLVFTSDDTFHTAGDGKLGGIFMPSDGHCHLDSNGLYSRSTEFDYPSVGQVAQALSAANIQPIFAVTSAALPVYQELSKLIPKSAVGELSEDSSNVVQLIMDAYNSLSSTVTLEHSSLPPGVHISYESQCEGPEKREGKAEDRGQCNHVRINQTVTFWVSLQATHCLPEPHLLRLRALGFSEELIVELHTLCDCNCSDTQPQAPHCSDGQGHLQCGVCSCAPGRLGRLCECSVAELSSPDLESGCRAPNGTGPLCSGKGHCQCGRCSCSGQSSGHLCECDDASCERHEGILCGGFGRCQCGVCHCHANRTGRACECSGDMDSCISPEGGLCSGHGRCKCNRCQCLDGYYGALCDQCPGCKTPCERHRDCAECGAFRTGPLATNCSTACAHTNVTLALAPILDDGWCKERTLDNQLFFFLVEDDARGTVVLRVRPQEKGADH
Method: Integrin α4β7—MAdCAM-1 ELISA Competition Assay
Protocol • 1.1 Preparation of α4β7. • 1.1.1 Add 500 μL of PBS to the vial. […] Mix by inversion before use. Keep at 4° C. for up to 1 month. • Final concentration is 100 pg/mL • 1.1 Preparation of MadCam-Fc. • 1.1.1 Add 500 μL of Assay buffer to the vial. […] Mix by inversion before use.

[2] = test system: integrin alpha-4-beta-7-expressing T lymphocytes; assay: In vivo T lymphocyte trafficking analyses in DSS-treated mice; parameters: species or system C57BI/6 mice
Method: In Vivo T Lymphocyte Trafficking Analyses
Animals. Female C57BI/6 mice (Charles River, St-Constant, Qc), weighting 16-19 g at delivery were used for this study. Following arrival in the animal facility, all animals were subjected to a general health evaluation. An acclimation period of 7-14 days was allowed before the beginning of the study.
Administration of DSS. Dextran sulfate sodium (DSS) was administered to C57B1/6 mice through addition to their drinking water at 2-3%. Mice accessed the DSS-treated water ad libitum over a 5-day period. Body weight and disease activity index (“DAI”) were measured on Day 5 in order to distribute DSS-treated animals in two uniform groups prior to dosing. Specific symptoms associated with colitis were scored based on the severity of each particular symptoms: 1—blood in stool (negative hemoccult, positive hemoccult, blood traces in stool visible, rectal bleeding); 2—stool consistency (normal, soft but still formed, very soft, diarrhea); 3—posture and fur (normal; ruffled fur; ruffled fur combined to slight hunched posture and slight dehydration; ruffled fur combined to hunched posture, dehydration and altered walking; moribund (euthanasia is mandatory before the animal reach this point). The overall DAI score was the sum of the three parameters (maximum score of 9). DAI assessment was performed on Day 5 only (prior to dosing). […]

[3] = test system: plasma proteins; assay: Plasma protein binding determination, equilibrium dialysis, mouse plasma; details: CD-1, mouse, % recovery, Mouse plasma, equilibrium dialysis
Method: (§1) An equilibrium dialysis (HTDialysis) method was used employing 50% plasma collected from CD-1 mice or Sprague-Dawley rats and incubated with K2EDTA. Test articles were assessed at 1 microM concentration in three replicates. Incubation time as 5 hours and plasma and buffer standards were assessed using LC/MS/MS. Percentage recovery was calculated as (Cbuffer+Cplasma)/[average]Cinitial, [average]Cinitial being measured in triplicate from the test samples prior to dialysis. Percentage of compound unbound was calculated as Cbuffer/Cplasma.

[4] = as above; details: first table; buffer/buffer control
Method: as §1

[5] = in vitro; details: Control buffer/Buffer at 0.1 uM % Recovery
Method: as §1

[6] = in vivo; details: male, CD-1, mouse, po, 48 mg/kg
Method: In Vivo Pharmacokinetic Assessments in Rodents
Oral bioavailability of test compounds was conducted by assessing plasma exposure of following one or two oral doses in mice and, in some cases, comparing said plasma exposure with that following a single intravenous dose of the same compound.
Body weights were recorded on the day of dosing.
Food restriction: Animals dosed p.o. were deprived of food overnight and fed ˜2 h following dosing.
Dosing: The formulation containing the test compound were administered p.o. by gavage with disposable feeding needles.
Sample collection: Terminal blood and tissue samples were collected under O2/CO2 anesthesia by cardiac puncture.
Sample processing/storage: All blood samples were transferred into K2EDTA tubes on wet ice and centrifuged within 5 min (3200×g for 5 min at 4° C.) to obtain plasma. Samples were stored frozen at −80° C. until bioanalysis.
Bioanalytical Method Qualification and Sample Analysis:
Instrumentation: AB Sciex API 4000 Q-TRAP MS/MS system equipped with an Agilent LC system with a binary pump, a solvent degasser, a thermostatted column compartment, a CTC autosampler and a divert valve installed between the column and mass spectrometer inlet.

COc1ccccc1-c1ccccc1C[C@@H]1NC(=O)[C@@H]2CCCN2[C@H](C(=O)NC(C)(C)C)[C@H](C)NC(=O)[C@H]([C@@H](C)O)NC(=O)[C@H](CC(=O)O)NC(=O)[C@H](CC(C)C)NC(=O)[C@H]2CCCCN2C1=O [Compound 135]
Selectivity ELISA [1]: 4.9

CC(C)C[C@@H]1NC(=O)[C@H]2CCCCN2C(=O)[C@H](Cc2ccc(O)cc2)N(C)C(=O)[C@@H]2CCCN2[C@H](C(=O)NC(C)(C)C)[C@H](C)NC(=O)[C@H]([C@@H](C)O)NC(=O)[C@H](CC(=O)O)NC1=O [Compound 148]
Selectivity ELISA [1]: 1.2

CC(C)C[C@@H]1NC(=O)[C@H](Cc2ccccc2)NC(=O)[C@@H]2CCCN2[C@H](C(=O)NC(C)(C)C)[C@H](C)NC(=O)[C@H]([C@@H](C)O)NC(=O)[C@H](CC(=O)O)NC1=O [Compound No. 5]
homing to the MLN ([2]; single oral dose 100 mg/kg): significant reduction of homing | recovery at 5 hours, 1 microM ([3]; first table): 130% | recovery at 5 hours, 1 microM ([3]; second table): 97% | Control buffer/Buffer at 0.1 uM Cdonor/Creciever [4]: 80% | recovery at 5 hours, 0.1 uM [5]: 108% | Cmax [6]: ~1600 ng/mL

CC(C)C[C@@H]1NC(=O)CN(C)C(=O)[C@H](Cc2ccc(O)cc2)NC(=O)[C@@H]2CCCN2[C@H](C(=O)NC(C)(C)C)[C@H](C)NC(=O)[C@H]([C@@H](C)O)NC(=O)[C@H](CC(=O)O)NC1=O [Compound No. 105]
homing to the MLN ([2]; single oral dose 200 mg/kg): significant and robust attenuation of homing
